According to PMC9908594, “Biochemical characterization and identification of ferulenol and embelin as potent inhibitors of malate:quinone oxidoreductase from Campylobacter jejuni” (Frontiers in Molecular Biosciences, 2023):
Several values for one entry are separate records, joined by “and”; a condition that tells them apart may be missing. Identical values can stand only once.

Assays:
CjMQO = CjMQO (Campylobacter jejuni, UniProt P56954); test: Steady-state kinetics of purified CjMQO for substrates; assay type: biochemical; details: for V max / k cat / k cat /K m / K m for ubiquinone: UQ varied, malate fixed 10 mM; for K m for ubiquinone: pH 7.0, 37°C
CjMQO, sequence (P56954 whole entry): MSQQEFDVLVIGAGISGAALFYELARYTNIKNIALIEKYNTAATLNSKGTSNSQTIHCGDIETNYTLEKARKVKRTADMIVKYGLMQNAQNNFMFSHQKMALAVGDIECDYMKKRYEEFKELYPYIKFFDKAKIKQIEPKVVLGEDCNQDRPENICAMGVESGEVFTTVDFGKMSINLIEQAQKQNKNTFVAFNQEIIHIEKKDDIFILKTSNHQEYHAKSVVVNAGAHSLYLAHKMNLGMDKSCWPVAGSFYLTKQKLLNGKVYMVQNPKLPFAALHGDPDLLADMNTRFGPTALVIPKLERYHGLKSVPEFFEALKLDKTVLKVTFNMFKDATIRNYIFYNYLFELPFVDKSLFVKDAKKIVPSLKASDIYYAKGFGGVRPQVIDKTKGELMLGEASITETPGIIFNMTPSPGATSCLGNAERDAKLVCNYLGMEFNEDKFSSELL
Description: The steady-state kinetic parameters of CjMQO were determined for malate and ubiquinone (UQ) with different side chain length (UQ0, UQ1, UQ2, UQ4, and dUQ; Supplementary Figure S3). The reaction mixture contained UQ, 1% (v/v) ethanol, 50 mM MOPS, 1 mM KCN and 0.2 μg/mL of purified CjMQO at the optimal pH (pH 7.0) and physiological temperature (37°C). The reduction of quinones was measured through the decrease in the absorbance at 278 nm ( ε278= 15 mM^-1 cm^-1). The Michaelis constant (K m) and maximum velocity (V max) of CjMQO for UQs were determined by varying the concentrations of UQs from 0.1 to 100 μM with the malate concentration fixed at 10 mM.
Next, K m and V max of CjMQO for malate were determined by varying the concentrations from 0.5 to 50 mM at fixed concentrations of different UQs (100 μM for UQ0 and UQ1 and 10 μM for dUQ and UQ2). The apparent steady-state kinetic parameters were calculated by Michaelis-Menten equation using GraphPad Prism software (ver. 9.3.1, GraphPad Software, Inc., San Diego, California, United States). Following the protocol previously described for TgMQO ([Acharjee et al., 2021]), the reaction mechanism of CjMQO was analysed using malate and UQ1 as substrates. Briefly, CjMQO activity was measured at different UQ1 concentrations (2, 5, 10, 20, and 50 μM) with malate concentrations fixed at 0.5, 2, and 5 mM; the data were then analysed using a double reciprocal plot (Lineweaver-Burk plot) produced by utilizing intercept and slope calculated from steady-state kinetics parameters obtained by fitting the data to Michalis-Menten equation with GraphPad Prism software. The type of reaction mechanism was determined based on the characteristics of the lines plotted in the double reciprocal plot.

TgMQO = test system: TgMQO; set-up: method as in Acharjee et al., 2021; details: ref Acharjee et al., 2021; cited from earlier work

Row | Structure (SMILES) | V max (CjMQO) | k cat (CjMQO) [s⁻¹] | k cat /K m (CjMQO) [M⁻¹ s⁻¹] | K m for ubiquinone (CjMQO) | K m of TgMQO for ubiquinone (TgMQO) [µM] | V max of TgMQO for ubiquinone (TgMQO) [µmol/min/mg] | Concentration above which substrate inhibition was observed (CjMQO; possibly due to low solubility in the assay condition) [µM]
1 | COC1=C(OC)C(=O)C(C)=CC1=O [UQ0] | 49 µmol/min/mg and 49.0 ± 2.4 µmol/min/mg | 219 ± 13.1 | 1.3e+06 | 168 µM and 168 ± 12.0 µM | 225 | 13 | 
2 | COC1=C(OC)C(=O)C(CC=C(C)C)=C(C)C1=O [UQ1] |  |  |  | 46 µM and 46.0 ± 3.1 µM | 116 | 44 | 
3 | COC1=C(OC)C(=O)C(C/C=C(\C)CC/C=C(\C)CC/C=C(\C)CCC=C(C)C)=C(C)C1=O [UQ4] | 10 µmol/min/mg and 10.0 ± 1.0 µmol/min/mg | 43.9 ± 11.4 | 5.3e+07 | 0.8 µM and 0.80 ± 0.2 µM |  |  | > 2
4 | CCCCCCCCCCC1=C(C)C(=O)C(OC)=C(OC)C1=O [dUQ, decylubiquinone] |  |  |  | 8.5 µM and 8.50 ± 2.0 µM | 17 | 12 | 
